The assay deals with T1, Integrin alpha-4 (Homo sapiens, UniProt P13612).
T1 sequence (P13612 whole entry): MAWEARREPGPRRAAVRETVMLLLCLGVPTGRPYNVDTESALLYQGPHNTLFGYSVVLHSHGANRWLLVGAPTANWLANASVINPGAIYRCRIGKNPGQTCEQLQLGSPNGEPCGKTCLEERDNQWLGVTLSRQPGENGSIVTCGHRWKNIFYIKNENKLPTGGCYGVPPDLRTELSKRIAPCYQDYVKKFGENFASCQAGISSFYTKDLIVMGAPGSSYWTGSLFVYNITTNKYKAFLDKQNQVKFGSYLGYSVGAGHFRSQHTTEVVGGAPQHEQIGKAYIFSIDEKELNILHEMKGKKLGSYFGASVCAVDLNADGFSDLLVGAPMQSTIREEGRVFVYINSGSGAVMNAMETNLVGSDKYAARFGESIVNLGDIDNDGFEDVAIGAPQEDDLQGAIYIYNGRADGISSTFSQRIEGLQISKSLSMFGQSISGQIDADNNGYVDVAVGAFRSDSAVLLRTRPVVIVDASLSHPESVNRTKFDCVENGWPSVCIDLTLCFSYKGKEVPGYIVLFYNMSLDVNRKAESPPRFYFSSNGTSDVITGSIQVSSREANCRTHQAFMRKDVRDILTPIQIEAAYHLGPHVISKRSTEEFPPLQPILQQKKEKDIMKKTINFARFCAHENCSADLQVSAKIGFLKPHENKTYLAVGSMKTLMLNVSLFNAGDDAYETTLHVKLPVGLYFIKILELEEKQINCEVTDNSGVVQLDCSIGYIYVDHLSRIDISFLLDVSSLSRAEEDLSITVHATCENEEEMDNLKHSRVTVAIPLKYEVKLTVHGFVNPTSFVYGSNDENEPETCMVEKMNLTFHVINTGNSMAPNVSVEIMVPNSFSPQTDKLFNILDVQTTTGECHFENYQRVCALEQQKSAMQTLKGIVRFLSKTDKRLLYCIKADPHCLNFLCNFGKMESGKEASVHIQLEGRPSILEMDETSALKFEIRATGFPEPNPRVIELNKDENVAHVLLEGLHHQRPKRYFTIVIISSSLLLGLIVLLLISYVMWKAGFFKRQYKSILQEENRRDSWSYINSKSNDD
The assay can be described thus: allosteric modulators of alpha4 integrin VLA-4 – cell-based, LIBS antibody binding, flow cytometry, SAR follow-up (AID 488791).

For `Cc1ccc(NC(=O)c2cc(-n3c(O)ccc3O)ccc2N2CCOCC2)cc1`, the EC50 came out at 16.4 µM.
Consider `Cc1ccc(NC(=O)c2cc(-n3c(O)ccc3O)ccc2N2CCOCC2)cc1Cl` [VU0419498-1], for which the EC50 came to 23.3 µM.
